Results from PubChem BioAssay AID330 (DTP/NCI, 2004).
Where “and” joins values, the source holds several entries; their conditions need not be identical. Identical values can stand only once. Toxic doses and inconclusive results are not listed. How the source made its calls: active means survival T/C of 150% or more; inactive means T/C below 125% in these data.

Test system: P388 leukemia ip, CD2F1 mice, survival T/C
Assay: NCI In Vivo Anticancer Drug Screen. Data for tumor model P388 Leukemia (intraperitoneal) in CD2F1 (CDF1) mice
Details: endpoint: median survival time, higher = longer survival
Method in brief: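 Mice carrying the transplanted tumor received test compound or vehicle. Survival was recorded in each group, and the value is the treated-group measurement divided by that of the vehicle-treated control group.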

[1] = dose: 100.0 mg/kg/injection, schedule: Q01DX001 (ip), vehicle: saline with Tween-80
[2] = dose: 200.0 mg/kg/injection, schedule: Q01DX001 (ip), vehicle: saline with Tween-80

Measured: T/C

CN(C)CCCOC(=O)Cc1cccc2c(=O)cc(-c3ccccc3)oc12
inactive: dose: 50.0 mg/kg/injection, schedule: Q01DX009 (ip), vehicle: saline 101 % of control | dose: 100.0 mg/kg/injection, schedule: Q01DX009 (ip), vehicle: saline 99 % of control | dose: 200.0 mg/kg/injection, schedule: Q01DX009 (ip), vehicle: saline 118 % of control

O=C1c2ccccc2-c2c1c1ccccc1c(=O)n2Cc1ccccc1
inactive: dose: 6.25 mg/kg/injection, schedule: Q01DX005 (ip), vehicle: saline with Tween-80 101 % of control | dose: 12.5 mg/kg/injection, schedule: Q01DX005 (ip), vehicle: saline with Tween-80 101 % of control | dose: 25.0 mg/kg/injection, schedule: Q01DX005 (ip), vehicle: saline with Tween-80 104 % of control

Cn1c2c(c3cc(I)ccc31)CCc1cncnc1-2
inactive: dose: 37.5 mg/kg/injection, schedule: Q01DX001 (ip), vehicle: Klucel (hydroxypropylcellulose) (HPC) 102 % of control | dose: 75.0 mg/kg/injection, schedule: Q01DX001 (ip), vehicle: Klucel (hydroxypropylcellulose) (HPC) 91 % of control | dose: 150.0 mg/kg/injection, schedule: Q01DX001 (ip), vehicle: Klucel (hydroxypropylcellulose) (HPC) 91 % of control

O=C(Cc1ccccc1)OCC1=CCN2CC[C@@H](O)[C@@H]12
inactive: dose: 15.0 mg/kg/injection, schedule: Q01DX009 (ip), vehicle: saline + alcohol 97 % of control | dose: 30.0 mg/kg/injection, schedule: Q01DX009 (ip), vehicle: saline + alcohol 99 % of control | dose: 60.0 mg/kg/injection, schedule: Q01DX009 (ip), vehicle: saline + alcohol 97 % of control | dose: 120.0 mg/kg/injection, schedule: Q01DX009 (ip), vehicle: saline + alcohol 109 % of control | dose: 240.0 mg/kg/injection, schedule: Q01DX009 (ip), vehicle: saline + alcohol 105 % of control | dose: 480.0 mg/kg/injection, schedule: Q01DX009 (ip), vehicle: saline + alcohol 116 % of control

O=C(O)/C=C(\F)C(=O)O
inactive: dose: 12.5 mg/kg/injection, schedule: Q01DX005 (ip), vehicle: saline 97 % of control and 94 % of control | dose: 25.0 mg/kg/injection, schedule: Q01DX005 (ip), vehicle: saline 100 % of control and 96 % of control | dose: 50.0 mg/kg/injection, schedule: Q01DX005 (ip), vehicle: saline 100 % of control and 107 % of control | dose: 100.0 mg/kg/injection, schedule: Q01DX005 (ip), vehicle: saline 92 % of control and 97 % of control | dose: 200.0 mg/kg/injection, schedule: Q01DX005 (ip), vehicle: saline 97 % of control

O=C1OCCSCCOCCSCCOC(=O)c2cncc1c2
inactive: dose: 100.0 mg/kg/injection, schedule: Q01DX001 (ip), vehicle: Klucel (hydroxypropylcellulose) (HPC) 99 % of control | dose: 200.0 mg/kg/injection, schedule: Q01DX001 (ip), vehicle: Klucel (hydroxypropylcellulose) (HPC) 113 % of control | dose: 400.0 mg/kg/injection, schedule: Q01DX001 (ip), vehicle: Klucel (hydroxypropylcellulose) (HPC) 109 % of control

Cc1cccc(C)c1-n1c(C)nc2c(c(C)c(C)n2-c2ccccc2)c1=N
inactive: dose: 50.0 mg/kg/injection, schedule: Q01DX005 (ip), vehicle: Klucel (hydroxypropylcellulose) (HPC) 101 % of control | dose: 100.0 mg/kg/injection, schedule: Q01DX005 (ip), vehicle: Klucel (hydroxypropylcellulose) (HPC) 94 % of control

O=S(=O)(Nc1cccc(NS(=O)(=O)c2ccccc2)n1)c1ccccc1
inactive: dose: 50.0 mg/kg/injection, schedule: Q01DX001 (ip), vehicle: saline with Tween-80 91 % of control | [1] 91 % of control | [2] 91 % of control

O=C1C=CC(Nc2cccc([N+](=O)[O-])c2)C1Nc1cccc([N+](=O)[O-])c1 (stereo not given)
inactive: dose: 7.5 mg/kg/injection, schedule: Q01DX005 (ip), vehicle: saline with Tween-80 102 % of control | dose: 15.0 mg/kg/injection, schedule: Q01DX005 (ip), vehicle: saline with Tween-80 90 % of control | dose: 30.0 mg/kg/injection, schedule: Q01DX005 (ip), vehicle: saline with Tween-80 91 % of control | dose: 240.0 mg/kg/injection, schedule: Q01DX005 (ip), vehicle: saline with Tween-80 88 % of control and 92 % of control

CCOC(=O)C12C=CC(=O)NC1(OC)OC(C)(C)C2 (stereo not given)
inactive: dose: 20.0 mg/kg/injection, schedule: Q01DX001 (ip), vehicle: Klucel (hydroxypropylcellulose) (HPC) 95 % of control | dose: 40.0 mg/kg/injection, schedule: Q01DX001 (ip), vehicle: Klucel (hydroxypropylcellulose) (HPC) 93 % of control | dose: 80.0 mg/kg/injection, schedule: Q01DX001 (ip), vehicle: Klucel (hydroxypropylcellulose) (HPC) 89 % of control

C/C(=N\OC(=O)CNOC(C)(C)C)c1ccccn1
inactive: [1] 103 % of control | [2] 99 % of control | dose: 400.0 mg/kg/injection, schedule: Q01DX001 (ip), vehicle: saline with Tween-80 99 % of control

C[Si](C)(C)O/C=C1\CCCCC1=O
inactive: dose: 50.0 mg/kg/injection, schedule: Q01DX009 (ip), vehicle: saline with Tween-80 121 % of control | dose: 100.0 mg/kg/injection, schedule: Q01DX009 (ip), vehicle: saline with Tween-80 106 % of control
